# Reference: US20090104119A1, “Dendrimer Based Compositions And Methods Of Using The Same” (priority 2004, published 2009)
# What was measured:
# [1] = Stability of dendrimer in cell culture medium (MTX release; ultrafiltration, XTT readout); format: physicochemical
# Procedure: The stability of the dendrimer was tested in cell culture medium to check if MTX was released from the dendrimer prior to its entry into the cells. The G5-FITC-FA-MTX was incubated with cell culture medium for 1, 2, 4 and 24 h, and the incubation medium was filtered using a 10,000-MW cutoff ultrafiltration device. The effect of the retentate and the filtrate on the growth of the KB cells was tested. G5-FITC-FA-MTX was incubated with medium at 2 μM concentration for 24 h. The incubation medium was filtered through a Centricon 10K-MW cutoff filter. The retentate (adjusted to pre-filtration volume) and the filtrate were incubated with KB cells (at 200 nM conjugate, as determined from the concentration of the pre-filtration sample) for 2 days and the XTT assay was performed. Similar results were obtained for the retentate and filtrate obtained from the medium that had been pre-incubated with the dendrimers for 1, 2, and 4 hours. […] There was a slow release of the MTX after 24 h, reaching a maximum of 40-50% release in 1 week.
# KB cells = experiment: Inhibition of cell growth by XTT assay; format: cell-based, human
# Procedure: Cell culture and treatment.
# Evaluation of dendrimer cytotoxicity.
# Because the binding of the conjugate to KB cells reaches maximal uptake within 1 h (Quintana et al, 2002. Pharmaceutical Research 19: 1310-1316.), the effect of the G5-FI-FA-MTX on cell growth was initially tested by pre-incubation of cells with the conjugate for 1 h, followed by incubation in a drug-free medium for 5 d. […] When the cells were pre-incubated with dendrimers for 4 h, there was a modest decrease of about 10% in cell growth as determined by XTT assay. The cytotoxicity measurements were therefore done by incubation with the dendrimer for a minimum of 24 h, a pre-incubation time period shown to induce significant cytotoxicity.
# The inhibition of cell growth induced by the conjugates was also tested by XTT assay which is based on the conversion of XTT to formazan by the active mitochondria of live cells (See, e.g., Roehm et al, J Immunol Methods 142, 257 (1991)).
# As free FA blocks the uptake of the dendrimers as well as rescues cells from MTX-induced cytotoxicity, the effect of pre-incubation of cells with excess FA on the anti-proliferative effect of G5-FITC-FA-MTX was tested. KB cells were exposed to different concentrations of the conjugate or free MTX for 24 h in the absence or presence of 50 μM FA. The incubation medium was removed, the cells were rinsed and incubated with fresh medium for 5 additional days in the absence of the drugs, and the XTT assay was performed (See, e.g., FIG. 24, □, ▪, represents cells treated with MTX; Δ, ▴, represents cells treated with G5-FITC-FA-MTX).
# The anti-proliferative effect of the MTX-conjugates was compared to conjugates that lacked either the FA or the FITC molecule. KB cells were incubated with 30 nM of the conjugates (=150 nM effective MTX concentration) for 24 h and the incubation medium was removed. The cells were rinsed and incubated for an additional 5 d in fresh medium in the absence of the drugs, and the XTT assay was performed.
# s.c. human KB xenografts = experiment: Targeted drug delivery, tumor growth and survival in SCID mice with KB xenografts; format: in vivo, SCID CB-17 mice
# Procedure: Recipient animal and tumor model.
# Delivery of targeted nanoparticle therapeutic. Twice weekly, SCID mice with s.c. KB xenografts, starting on day 4 after tumor implantation, received via the tail vein an injection of either targeted or nontargeted conjugate containing methotrexate, a conjugate without methotrexate, free methotrexate, or saline as a control. The compounds were delivered in a 0.2 mL volume of saline per 20 g of mouse. The single dose of methotrexate delivered each time equaled 0.33 mg/kg. The higher doses of 1.67 and 3.33 mg/kg free methotrexate were also tested. The conjugates were delivered at equimolar concentration of methotrexate calculated based on the number of methotrexate molecules present in a nanoparticle. The conjugate without methotrexate was delivered at equimolar concentration of dendrimer. In the initial trial, six groups of mice with five mice in each group received up to 15 injections. In the follow-up trial, mice received up to 28 injections dependent on their survival. The body weights of the mice were monitored throughout the experiment as an indication of adverse effects of the drug. Histopathology of multiple organs was done at the termination of each trial and each time mouse had to be euthanized due to toxic effects or tumor burden. Tissues from lung, heart, liver, pancreas, spleen, kidney, and tumor were analyzed. Additionally, cells were isolated from tumors, stained with targeted fluorescein-labeled conjugate, and tested for the presence of folic acid receptors using flow cytometer.
# Targeted drug delivery to tumor cells through the folate receptor. The efficacy of different doses of conjugates was tested on SCID CB-17 mice bearing s.c. human KB xenografts and was compared with equivalent and higher doses of free methotrexate. Mice were maintained on the folic acid-deficient diet for 3 weeks before injection of the KB tumor cells to achieve circulating levels of folic acid that approach those in human serum and to prevent down-regulation of folate receptors on tumor xenografts (See, Mathias et al., J Nucl Med 29, 1579 (1998)). Six groups of SCID mice with five mice in each group were injected s.c. on one flank with 5×10^6 KB cells in 0.2 mL PBS suspension. The highest total dose of G5-FI-FA-MTX therapeutic used equals 55.0 mg/kg and is equivalent to a 5.0 mg/kg total cumulative dose of free methotrexate (FIG. 29). The therapeutic dose of the conjugate was compared with three cumulative doses of free methotrexate equivalent to 33.3, 21.7, and 5.0 mg/kg accumulated in 10 to 15 injections based on mouse survival. Saline and the conjugate without methotrexate (G5-FI-FA) were used as controls.
# [2] = 2 μM, up to 24 h in medium, 10K-MW cutoff filter, KB cells 2 days, XTT
substance,measurement,setting,value
G5-(Ac)82-(FITC)5-(FA)5-MTX5 [G5-FITC-FA-MTX],cytotoxicity of filtrate after incubation in medium,[1]; [2],failed to show any cytotoxicity
same,cytotoxicity of retentate after incubation in medium,[1]; [2],cytotoxic
same,"release of MTX, maximum","[1]; slow release after 24 h, in 1 week",40-50%
same,"inhibition of cell growth, XTT","KB cells; 1, 2 or 3 days",time-dependent cytotoxicity
same,decrease in cell growth,"KB cells; pre-incubated 4 h, XTT assay",about 10%
same,growth-inhibitory effect,"KB cells; pre-incubation 1 h, then drug-free medium 5 d",failed to show any growth-inhibitory effect
same,effect on tumor growth,"s.c. human KB xenografts; first trial, up to 15 injections, cumulative 5.0 mg/kg methotrexate equivalents or equimolar dendrimer",as equally effective as the second highest dose of free methotrexate
same,survivors at the termination of the trial,s.c. human KB xenografts; second 99-day trial,two (of eight)
same,"tumor growth versus G5-FI-MTX, free methotrexate or saline","s.c. human KB xenografts; second 99-day trial, P<0.05",slower growth of tumors
